From US20250134995A1, “SAPONIN-BASED ADJUVANTS AND METHODS OF CHARACTERIZING SAME” (priority 2023, published 2025)
Read-outs that look alike come from different tables or passages of the source.

Key:
[1] = in vivo; cited from earlier work
[2] = in vitro, free QS-21; cited from earlier work

CC(C)CCC[C@@H](C)[C@H]1CC[C@H]2[C@@H]3CC=C4C[C@@H](O)CC[C@]4(C)[C@H]3CC[C@]12C [cholesterol, cholesterol [1-2-3H (N)]]
elimination (after 168 h): lack of complete elimination
distribution to the iliac LN compared to inguinal LN and popliteal LN (after QF injection): substantial
plateau of relative activity in intestines, lungs, and bone marrow (both, CD-1 IGS, mouse, in vivo): 5-20 % ID/g tissue
plateau of relative radioactivity in plasma and kidney (both, CD-1 IGS, mouse, in vivo): 5%-20%
start of plateau of relative activity in testes, ovaries and uterus (both, CD-1 IGS, mouse, in vivo): 24 h
time at which systemic levels reached a plateau (both, CD-1 IGS, mouse, in vivo): around 24 h
time from which cholesterol levels are significantly higher than saponin levels at the injection site (both, CD-1 IGS, mouse, in vivo): 3 to 6 h
time to removal from the injection site (both, CD-1 IGS, mouse, in vivo): ≤ 48 h
decline of counts at the injection site (compared to saponin counts): slower decline
early relative radioactivity in plasma and kidney (early timepoints, in contrast to saponins): lower relative radioactivity
activity in urine (mouse, in vivo): Barely detectable activity
injected radioactive dose per gram tissue at the injection site and in the iliac LN (mouse, in vivo): high percentage
plateauing activity in spleen, heart, and brain (mouse, in vivo): lower levels
relative activity in the liver (mouse, in vivo): low levels
relative activity in the liver versus saponins (mouse, in vivo): slightly higher relative activity
reproductive organ with the highest relative activity (mouse, in vivo): highest relative activity of cholesterol detected in the ovaries

QS-21
pain at the injection site [1]: immediate pain at the injection site
hemolytic activity [2]: shows hemolytic activity

saponins
effect of presence of SARS-COV-2 antigen on relative activity in urine and kidney (mouse, in vivo): increased relative activity
excretion pathway (mouse, in vivo): rapidly excreted via the kidneys into urine
injected radioactive dose per gram tissue at the injection site and in the iliac LN (mouse, in vivo): high percentage
level in bone marrow after the peak (mouse, in vivo): declined
level in the QF and the iliac LN (mouse, in vivo): low levels
relative activity in plasma, urine, and kidney after the peak (mouse, in vivo): rapid decline
relative activity in the liver (mouse, in vivo): low levels
systemic accumulation (mouse, in vivo): do not accumulate systemically
time of highest relative activity in testes, ovaries and uterus (mouse, in vivo): 1 h
time of peak in bone marrow (mouse, in vivo): 3 h and 6 h
time of peak relative activity in plasma, urine, and kidney (mouse, in vivo): 1 to 3 h
time to near complete clearance (urine as major excretion pathway) (mouse, in vivo): ≤ 7 days
time to removal from the injection site (mouse, in vivo): ≤ 48 h
